In patent US12428369B2, “Crystal form of aromatic vinyl derivatives, and preparation method therefor and use thereof” (GUANGZHOU MAXINOVEL PHARMACEUTICALS CO., LTD., priority 2020, dated 2025):
Values after ≈ are worked out from the molar mass of the structure shown.

Tests used:
PD-1 and PD-L1 = PD-1 and PD-L1 (Homo sapiens, UniProt Q9NZQ7); settings: as disclosed in patent CN109988144A; cited from earlier work
[1] = Dynamic vapor sorption (DVS) analysis; assay type: physicochemical; settings: 25° C.; for hygroscopicity: assessment in words
Experimental: The hygroscopic characteristics of the sample were tested when the humidity changed from 0% RH to 95% RH, and the dehumidifying characteristics of the sample were tested when the humidity changed from 95% RH to 0% RH. The humidity change in each step size was 5% RH, the equilibrium standard was that the weight change rate within 10 min was less than 0.01%/min, and the longest equilibrium time was 2 hours.
The hygroscopic characteristics of the sample were tested when the humidity changed from 0% RH to 95% RH, and the dehumidifying characteristics of the sample were tested when the humidity changed from 95% RH to 0% RH. The humidity change in each step size was 5% RH, the equilibrium standard was that the weight change rate within 5 min was less than 0.01%/min, and the longest equilibrium time was 2 hours.

[2] = Equilibrium solubility and dissolution rate in water, SGF, FaSSIF, FeSSIF; assay type: physicochemical; settings: for solubility at 0.5 h / solubility at 2 h / solubility at 24 h: 37 °C, thermodynamic from solid; for Solubility: 37° C.
Experimental: To further study whether the equilibrium solubility and dissolution rate of crystal forms A, B and C are different in pure water and physiological related media in vivo, the equilibrium solubility and dissolution rate of […] crystal forms in water, simulated gastric fluid (SGF), fasted-state simulated intestinal fluid (FaSSIF) and fed state simulated intestinal fluid (FeSSIF) were tested respectively.

[3] = Solid-state stability: content and related substances by HPLC; assay type: physicochemical
Experimental: (§1) The samples of crystal forms A, B, and C were weighed and added to a 20 mL colorless transparent glass bottle, respectively, and the sample bottles were respectively placed under the corresponding influencing factors and acceleration conditions (the sample bottles under humidity conditions were sealed with tin foil and placed with holes, and the other samples were covered tightly and placed), taken out after being placed for 1 week and 2 weeks respectively, and the sample content and related substances under various conditions were detected by HPLC; according to the same method as above, samples were respectively weighed and placed under a corresponding influencing factor and accelerated condition, and were taken out after being placed for 2 weeks for observing the appearance and XRPD characterization of each sample, and the physical stability of each crystal form was examined, and the test methods are detailed in table 14 and table 15; at the same time, 2 samples of the crystal forms A, B, and C of the compound as shown in formula I were respectively weighed accurately into 20 mL colorless transparent glass bottles and covered tightly, placed in a −20° C. refrigerator, and taken out as a standard for HPLC analysis at 2 weeks, and the test results are detailed in table 16 and table 17.

[4] = Solid-state stability: appearance and crystal form (XRPD); assay type: physicochemical; settings: for physical stability: four storage conditions
Experimental: as §1

[5] = Acceleration (40° C./75% RH), 1 week
[6] = Acceleration (40° C./75% RH), 2 weeks
[7] = High humidity (92.5% RH), 1 week
[8] = High humidity (92.5% RH), 2 weeks
[9] = High temperature (60° C.), 1 week
[10] = High temperature (60° C.), 2 weeks
[11] = illumination (4500 LuX), 1 week
[12] = illumination (4500 LuX), 2 weeks
[13] = Illumination (4500 Lux), 2 weeks
[14] = high temperature, high humidity, illumination and acceleration, 2 weeks (conclusion)

Sequence of PD-1 and PD-L1 (Q9NZQ7 19-238 limits assumed): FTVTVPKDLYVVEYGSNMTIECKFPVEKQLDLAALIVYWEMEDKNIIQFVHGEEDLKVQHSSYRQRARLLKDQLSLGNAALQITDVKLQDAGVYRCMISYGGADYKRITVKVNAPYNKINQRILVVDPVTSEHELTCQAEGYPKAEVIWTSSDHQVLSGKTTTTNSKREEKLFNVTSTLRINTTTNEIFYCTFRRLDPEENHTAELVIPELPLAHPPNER

Cc1c(/C=C/c2cc(CN[C@@](C)(CO)C(=O)O)ccc2C(F)(F)F)cccc1-c1ccccc1 [Compound I]
inhibitory effect on the combination of PD-1 and PD-L1 (PD-1 and PD-L1): strong inhibitory effect

Cc1c(/C=C/c2cc(CN[C@@](C)(CO)C(=O)O)ccc2C(F)(F)F)cccc1-c1ccccc1 [Crystal form A]
hygroscopic weight gain ([1]; 80% RH): 0.310% | hygroscopic weight gain ([1]; 95% RH): 0.409% | hygroscopicity [1]: slightly hygroscopic | solubility at 0.5 h ([2]; FaSSIF as printed (second set of rows), fessif, FaSSIF, 0.5 hours): 183 µg/mL (≈ 389 µM) | solubility at 2 h ([2]; FaSSIF as printed (second set of rows), fessif, FaSSIF, 2 hours): 177 µg/mL (≈ 376 µM) | solubility at 24 h ([2]; FaSSIF as printed (second set of rows), fessif, FaSSIF, 24 hours): 170 µg/mL (≈ 363 µM) | Solubility ([2]; FaSSIF, 2 hours): 2.0 µg/mL (≈ 4.26 µM) | Solubility ([2]; SGF, 0.5 hours): 0.4 µg/mL (≈ 0.852 µM) | Solubility ([2]; SGF, 2 hours): 0.3 µg/mL (≈ 0.639 µM) | Solubility ([2]; SGF, 24 hours): 0.1 µg/mL (≈ 0.213 µM) | Solubility ([2]; Water, 24 hours): 6.1 µg/mL (≈ 13 µM) | solubility at 0.5 h ([2]; fasted-state simulated intestinal fluid (FaSSIF), fassif, 0.5 hours): 8.7 µg/mL (≈ 18.5 µM) | solubility at 24 h ([2]; fasted-state simulated intestinal fluid (FaSSIF), fassif, 24 hours): 4.3 µg/mL (≈ 9.16 µM) | solubility at 0.5 h ([2]; water, 0.5 hours): 1.5 µg/mL (≈ 3.19 µM) | solubility at 2 h ([2]; water, 2 hours): 6 µg/mL (≈ 12.8 µM) | Content [3, 5]: 104.34% | Total related substances [3, 5]: 0.04% | Content [3, 6]: 104.13% | Total related substances [3, 6]: 0.03% | Total related substances ([3]; Control, −20° C., 2 weeks): 0.00% | Content [3, 7]: 104.75% | Total related substances [3, 7]: 0.10% | Content [3, 8]: 104.25% | Total related substances [3, 8]: 0.12% | Content [3, 9]: 100.69% | Total related substances [3, 9]: 0.02% | Content [3, 10]: 104.03% | Total related substances [3, 10]: 0.03% | Content [3, 11]: 96.10% | Total related substances [3, 11]: 3.94% | Content [3, 12]: 88.50% | Total related substances [3, 12]: 11.18% | Appearance [4, 6]: Off-white | Crystal form (XRPD) after storage [4, 6]: Crystal form A | Appearance ([4]; Control, −20° C., 2 weeks): Off-white | Crystal form (XRPD) after storage ([4]; Control, −20° C., 2 weeks, listed as Crystal form A-Control): Crystal form A | Appearance [4, 8]: Off-white | Crystal form (XRPD) after storage [4, 8]: Crystal form A | Appearance [4, 10]: Off-white | Crystal form (XRPD) after storage [4, 10]: Crystal form A | Appearance [4, 13]: Off-white | Crystal form (XRPD) after storage [4, 13]: Crystal form A | physical stability ([4]; 2 weeks (conclusion)): good | Appearance [4, 14]: off-white

Cc1c(/C=C/c2cc(CN[C@@](C)(CO)C(=O)O)ccc2C(F)(F)F)cccc1-c1ccccc1 [Crystal form B]
hygroscopicity [1]: hygroscopic | weight gain ([1]; from 0% RH to 95% RH): 7.235% | Solubility ([2]; FaSSIF (rows r12-r14), 0.5 hours, listed as B): 13.3 µg/mL (≈ 28.3 µM) | Solubility ([2]; FaSSIF (rows r12-r14), 2 hours, listed as B): 8.8 µg/mL (≈ 18.7 µM) | Solubility ([2]; FaSSIF (rows r12-r14), 24 hours, listed as B): 8.6 µg/mL (≈ 18.3 µM) | Solubility ([2]; FaSSIF as printed (second set, rows r15-r17), 0.5 hours, listed as B): 176.4 µg/mL (≈ 376 µM) | Solubility ([2]; FaSSIF as printed (second set, rows r15-r17), 2 hours, listed as B): 175.9 µg/mL (≈ 375 µM) | Solubility ([2]; FaSSIF as printed (second set, rows r15-r17), 24 hours, listed as B): 179.7 µg/mL (≈ 383 µM) | Solubility ([2]; SGF, 2 hours): 0.1 µg/mL (≈ 0.213 µM) | Solubility ([2]; SGF, 24 hours): 0.2 µg/mL (≈ 0.426 µM) | Solubility ([2]; Water, 0.5 hours): 2.5 µg/mL (≈ 5.32 µM) | Solubility ([2]; Water, 2 hours): 7.5 µg/mL (≈ 16 µM) | Solubility ([2]; Water, 24 hours): 1.2 µg/mL (≈ 2.56 µM) | solubility at 0.5 h ([2]; simulated gastric fluid (SGF), simulated gastric fluid, SGF, 0.5 hours): 0.5 µg/mL (≈ 1.06 µM) | Content [3, 5]: 103.22% | Total related substances [3, 5]: 0.00% | Content [3, 6]: 101.60% | Total related substances [3, 6]: 0.00% | Total related substances ([3]; Control, −20° C., 2 weeks): 0.00% | Content [3, 7]: 100.09% | Total related substances [3, 7]: 0.00% | Content [3, 8]: 100.83% | Total related substances [3, 8]: 0.00% | Content [3, 9]: 100.70% | Total related substances [3, 9]: 0.00% | Content [3, 10]: 100.15% | Total related substances [3, 10]: 0.00% | Content [3, 11]: 100.02% | Total related substances [3, 11]: 0.39% | Content [3, 12]: 99.69% | Total related substances [3, 12]: 1.28% | Appearance [4, 6]: Off-white | Crystal form (XRPD) after storage [4, 6]: Crystal form B | Appearance ([4]; Control, −20° C., 2 weeks): Off-white | Crystal form (XRPD) after storage ([4]; Control, −20° C., 2 weeks, listed as Crystal form B-Control): Crystal form B | Appearance [4, 8]: Off-white | Crystal form (XRPD) after storage [4, 8]: Crystal form B | Appearance [4, 10]: Off-white | Crystal form (XRPD) after storage [4, 10]: Mixed crystal form | Crystal form (XRPD) after storage ([4]; High temperature (60° C.), 2 weeks, listed as crystal form B): converted into other crystal form | Appearance [4, 13]: Off-white | Crystal form (XRPD) after storage [4, 13]: Crystal form B | physical stability ([4]; 2 weeks (conclusion)): poor | Appearance [4, 14]: off-white
